Source: patent US9409893B2, “Heteroaryl derivatives and uses thereof” (Jacobus Pharmaceutical Company, Inc., priority 2012, dated 2016)
Structures can show the parent of a compound that is named as a salt. Where two headings read alike, the source gives them in different places.

Legend:
[1] = test system: P. falciparum strain D6; experiment: [3H]-hypoxanthine growth inhibition assay, P. falciparum D6; format: cell-based; conditions: Plasmodium falciparum
Description: (§1) The potential for antimalarial activity against Plasmodium falciparum was determined by measuring the incorporation of tritiated hypoxanthine into parasitized red blood cells.
(§2) Stock solutions of the test compounds and the reference drug chloroquine (CQ) (Sigma Chemicals C-6628, Lot #059H0919) were prepared in silanized glass vials with AquaSil™ (Pierce, USA) to minimize absorption of the compounds to glassware. All test compounds were dissolved in DMSO (Sigma Cat No. #D8418) to 1 mM concentration, whereas CQ was dissolved in 50% methanol at a concentration of 1.6 mg/ml (base). Stock solutions were stored at −20° C.
(§3) The P. falciparum laboratory adapted strains utilized in this project (Table 1) were in vitro cultured and routinely maintained in RPMI-1640-LPLF complete medium, which contained low concentrations of para-amino benzoic acid (0.0005 mg/L) and folic acid (0.01 mg/L).
(§4) The low concentration of folic acid in RPMI-1640-LPLF prevents inhibition of the compound if its activity targets the parasite's folate metabolic pathway. Parasites were cultured in human red blood cells (RBCs) in vitro at 37° C. in special gas mixture (5% O2, 5% CO2 and 90% N2) as described Trager and Jensen (1979 Science 193:673-675).
(§5) Base cultivation medium consisted of 10.4 g/L RPMI-1640-LPLF powder (Gibco BRL), 5.97 g/L HEPES buffer (MP Biomedicals, USA), 2.0 g/L D-glucose (BDH chemicals, Australia), 0.05 g/L hypoxanthine (Sigma, USA) and 40 mg/L gentamycin (Pfizer, Australia). The pH of the medium was adjusted to 6.9 and the solution was filtered using 0.2 μm pore size (AcroCap, Gelman Science, USA). Complete medium was prepared by adding sodium bicarbonate solution (final concentration, 0.21%) and drug-free heat-inactivated human plasma, pooled from various blood types, obtained from the Australian Red Cross Blood Service (Brisbane) (final concentration, 10%) to the base RPMI-1640-LPLF. For [^3H]-hypoxanthine inhibition growth assay, RPMI-1640-LPLF complete medium which lacked [^3H]-hypoxanthine ([^3H]-RPMI-1640-LPLF) was used to prevent uptake of hypoxanthine by parasites, as radioactive hypoxanthine uptake is measured as a surrogate marker of growth. All complete medium was used within three days of preparation. See DE (Para) SOP 002 for methodology.
(§6) Red blood cells (RBC) were required for P. falciparum parasites to proliferate in vitro. 0 (Rh+) type blood was obtained from the Australian Red Cross Blood Service. The RBC were washed twice in phosphate-buffered saline (PBS) and once in [^3H]-RPMI-1640-LPLF complete medium by centrifugation at 1,500×g for 5 min. Following the final wash, the haematocrit was measured as the percent of RBC to total culture volume. The haematocrit was adjusted to 50% by removing or adding [^3H]-RPMI-LPLF complete medium. See DE (Para) SOP 003 for methodology.
(§7) All P. falciparum strains were grown in RPMI-1640-LPLF complete medium at 4% haematocrit and 1% to 8% parasitaemia at 37° C. in sealed flasks in a gas mixture of 5% O2, 5% CO2 and 90% N2 (BOC Gases, Brisbane, Australia). For drug susceptibility assays cultures were routinely synchronized when the majority of parasites (>85%) were at early trophozoite (ring) stage. Synchronization involved removing the more mature erythrocytic parasite stages by lysis, resulting in the retention only of early trophozoite (ring) stages. Synchronization was performed by re-suspending the infected red blood cell (iRBC) pellet in 5 to 10 times its volume of 5% D-sorbitol (Bacto Laboratories Pty. Ltd., Australia) for 5 min (Lambros and Vanderberg, 1979 J Parasitol 65: 418-420). The mixture was centrifuged (1,500 rpm for 5 min) and the supernatant removed. The iRBC were washed twice using PBS buffer and once using [^3H]-RPMI-LPLF plain medium. Following synchronization, a new culture was prepared with an initial parasitaemia of 1% in RPMI-LPLF complete medium. See DE (Para) SOP 008 for methodology.

[2] = test system: P. falciparum strain W2; experiment: [3H]-hypoxanthine growth inhibition assay, P. falciparum W2; format: cell-based; conditions: Plasmodium falciparum
Description: as §1, §2, §3, §4, §5, §6, §7

[3] = P. falciparum D6 (sensitive to chloroquine and pyrimethamine), [3H]-hypoxanthine incorporation, read-out: D6 IC50
[4] = P. falciparum W2 (resistant to chloroquine and pyrimethamine), [3H]-hypoxanthine incorporation, read-out: W2 IC50

Structure (SMILES) | IC50 [1, 3] | IC50 [2, 4] | IC50 ([1]; D6, read-out: D6 IC50) | IC50 ([2]; W2, read-out: W2 IC50)
CC(C)(C)NCc1cc(C(C)(C)C)cc(-c2ccc(Cl)s2)c1O [Example 2, 4-(tert-Butyl)-2-((tert-butylamino)methyl)-6-(5-chlorothiophen-2-yl)phenol hydrochloride] | 45 nM | 25 nM |  | 
CC(C)(C)NCc1cc(C(C)(C)C)cc(-c2cnc3ccccc3c2)c1O [Example 3, 4-(tert-Butyl)-2-((tert-butylamino)methyl)-6-(quinolin-3-yl)phenol dihydrochloride] |  |  | 26 nM | 22 nM
CC(C)(C)NCc1cc(C(C)(C)C)cc(-c2cccc3ncccc23)c1O [Example 4, 4-(tert-Butyl)-2-((tert-butylamino)methyl)-6-(quinolin-5-yl)phenol dihydrochloride] |  |  | 144 nM | 200 nM
CC(C)(C)NCc1cc(C(C)(C)C)cc(-c2ccc3ncccc3c2)c1O [Example 5, 4-(tert-Butyl)-2-((tert-butylamino)methyl)-6-(quinolin-6-yl)phenol dihydrochloride] |  |  | 37 nM | 25 nM
CC(C)(C)NCc1cc(C(C)(C)C)cc(-c2cc3ccccc3o2)c1O [Example 6, 2-(Benzofuran-2-yl)-4-(tert-butyl)-6-((tert-butylamino)methyl)phenol hydrochloride] | 31 nM | 13 nM |  | 
CC(C)(C)NCc1cc(C(C)(C)C)cc(-c2cc3ccccc3s2)c1O [Example 7, 2-(Benzo[b]thiophen-2-yl)-4-(tert-butyl)-6-((tert-butylamino)methyl)phenol hydrochloride] | 18 nM | 9 nM |  | 
CC(C)(C)NCc1cc(C(C)(C)C)cc(-c2ccnc3ccccc23)c1O [Example 8, 4-(tert-Butyl)-2-((tert-butylamino)methyl)-6-(quinolin-4-yl)phenol dihydrochloride] |  |  | 109 nM | 94 nM
Cn1nc(C(F)(F)F)cc1-c1cc(C(C)(C)C)cc(CNC(C)(C)C)c1O [Example 9, 4-(tert-Butyl)-2-((tert-butylamino)methyl)-6-(1-methyl-3-(trifluoromethyl)-1H-pyrazol-5-yl)phenol hydrochloride] | 94 nM | 48 nM |  | 
CC(C)Oc1ccc(-c2cc(C(C)(C)C)cc(CNC(C)(C)C)c2O)cn1 [Example 10, 4-(tert-Butyl)-2-((tert-butylamino)methyl)-6-(6-isopropoxypyridin-3-yl)phenol dihydrochloride] |  |  | 25 nM | 11 nM
CC(C)(C)NCc1cc(C(C)(C)C)cc(-c2ccc(N)nc2)c1O [Example 11, 2-(6-Aminopyridin-3-yl)-4-(tert-butyl)-6-((tert-butylamino)methyl)phenol dihydrochloride] |  |  | 350 nM | 398 nM
COc1ccc(-c2cc(C(C)(C)C)cc(CNC(C)(C)C)c2O)cn1 [Example 12, 4-(tert-Butyl)-2-((tert-butylamino)methyl)-6-(6-methoxypyridin-3-yl)phenol dihydrochloride] |  |  | 23 nM | 14 nM
CC(C)(C)NCc1cc(C(C)(C)C)cc(-c2cncc3ccccc23)c1O [Example 13, 4-(tert-Butyl)-2-((tert-butylamino)methyl)-6-(isoquinolin-4-yl)phenol dihydrochloride] |  |  | 73 nM | 85 nM
CN(C)c1ccc(-c2cc(C(C)(C)C)cc(CNC(C)(C)C)c2O)cn1 [Example 14, 4-(tert-Butyl)-2-((tert-butylamino)methyl)-6-(6-(dimethylamino)pyridin-3-yl)phenol dihydrochloride] |  |  | 23 nM | 14 nM
CC(C)(C)NCc1cc(C(C)(C)C)cc(-c2ccc(N3CCCC3)nc2)c1O [Example 15, 4-(tert-Butyl)-2-((tert-butylamino)methyl)-6-(6-(pyrrolidin-1-yl)pyridin-3-yl)phenol dihydrochloride] |  |  | 24 nM | 16 nM
COc1cc(-c2cc(C(C)(C)C)cc(CNC(C)(C)C)c2O)ccn1 [Example 16, 4-(tert-Butyl)-2-((tert-butylamino)methyl)-6-(2-methoxypyridin-4-yl)phenol dihydrochloride] |  |  | 26 nM | 11 nM
COc1cncc(-c2cc(C(C)(C)C)cc(CNC(C)(C)C)c2O)c1 [Example 17, 4-(tert-Butyl)-2-((tert-butylamino)methyl)-6-(5-methoxypyridin-3-yl)phenol dihydrochloride] |  |  | 30 nM | 25 nM
CC(C)(C)NCc1cc(C(C)(C)C)cc(-c2cncc(C(F)(F)F)c2)c1O [Example 18, 4-(tert-Butyl)-2-((tert-butylamino)methyl)-6-(5-(trifluoromethyl)pyridin-3-yl)phenol 1.4 hydrochloride] | 25 nM | 12 nM |  | 
CC(C)(C)NCc1cc(C(C)(C)C)cc(-c2ccnc(C(F)(F)F)c2)c1O [Example 20, 4-(tert-Butyl)-2-((tert-butylamino)methyl)-6-(2-(trifluoromethyl)pyridin-4-yl)phenol hydrochloride] | 21 nM | 9 nM |  | 
CC(C)(C)NCc1cc(C(C)(C)C)cc(-c2cncc(Cl)c2)c1O [Example 21, 4-(tert-Butyl)-2-((tert-butylamino)methyl)-6-(5-chloropyridin-3-yl)phenol dihydrochloride] |  |  | 17 nM | 8 nM
CC(C)(C)NCc1cc(C(C)(C)C)cc(-c2ccc(C(C)(C)C)nc2)c1O [Example 22, 4-(tert-Butyl)-2-(6-(tert-butyl)pyridin-3-yl)-6-((tert-butylamino)methyl)phenol dihydrochloride] |  |  | 64 nM | 24 nM
CC(C)(C)NCc1cc(C(C)(C)C)cc(-c2ccc(Cl)nc2)c1O [Example 23, 4-(tert-Butyl)-2-((tert-butylamino)methyl)-6-(6-chloropyridin-3-yl)phenol hydrochloride] | 19 nM | 12 nM |  | 
Cc1ccc(-c2cc(C(C)(C)C)cc(CNC(C)(C)C)c2O)nc1 [Example 25, 4-(tert-Butyl)-2-((tert-butylamino)methyl)-6-(5-methylpyridin-2-yl)phenol dihydrochloride] |  |  | ≥ 20000 nM | ≥ 20000 nM
CC(C)(C)NCc1cc(C(C)(C)C)cc(-c2ccc(F)cn2)c1O [Example 26, 4-(tert-Butyl)-2-((tert-butylamino)methyl)-6-(5-fluoropyridin-2-yl)phenol 1.35hydrochloride] | 1330 nM | 598 nM |  | 
CC(C)(C)NCc1cc(C(C)(C)C)cc(-c2ncccc2F)c1O [Example 27, 4-(tert-Butyl)-2-((tert-butylamino)methyl)-6-(3-fluoropyridin-2-yl)phenol 1.7hydrochloride] | 6860 nM | 3440 nM |  | 
CC(C)(C)NCc1cc(C(C)(C)C)cc(-c2cc(C(F)(F)F)ccn2)c1O [Example 28, 4-(tert-Butyl)-2-((tert-butylamino)methyl)-6-(4-(trifluoromethyl)pyridin-2-yl)phenol hydrochloride] | 357 nM | 111 nM |  | 
CC(C)(C)NCc1cc(C(C)(C)C)cc(-c2cccc(C(F)(F)F)n2)c1O [Example 29, 4-(tert-Butyl)-2-((tert-butylamino)methyl)-6-(6-(trifluoromethyl)pyridin-2-yl)phenol hydrochloride] | 192 nM | 68 nM |  | 
